Measured values as given in the NIST ThermoML archive (doi:10.1021/je0301747).
Numbers after ± are expanded uncertainties.

Key:
[1] = molar enthalpy of vaporization or sublimation; conditions: 298.15 K; Liquid
[2] = Liquid

Structure (SMILES) | molar enthalpy [1] [kcal/mol] | vapor or sublimation pressure ([2]; 298.15 K) [kPa] | vapor or sublimation pressure ([2]; 328.15 K) [kPa] | vapor or sublimation pressure ([2]; 358.15 K) [kPa] | vapor or sublimation pressure ([2]; 388.15 K) [kPa] | vapor or sublimation pressure ([2]; 418.15 K) [kPa] | vapor or sublimation pressure ([2]; 448.15 K) [kPa] | vapor or sublimation pressure ([2]; 478.15 K) [kPa] | vapor or sublimation pressure ([2]; 508.15 K) [kPa] | vapor or sublimation pressure ([2]; 538.15 K) [kPa] | vapor or sublimation pressure ([2]; 568.15 K) [kPa] | vapor or sublimation pressure ([2]; 575.15 K) [kPa]
CCCCCCCCCCCCCCCCCCCCCCCCCCCC [octacosane] | 33.9 ± 3.35 | 3.173e-10 | 5.263e-08 ± 5.1e-08 | 3.022e-06 ± 1.4e-06 | 7.829e-05 ± 2.4e-05 | 0.001107 ± 0.00027 | 0.009795 ± 0.0022 | 0.06012 ± 0.013 | 0.276 ± 0.057 | 1.004 ± 0.21 | 3.025 ± 0.62 | 3.823 ± 0.77
CCCCCCCCCCCCCCCCCCCCC [heneicosane] | 25.5 ± 1.74 | 6.69e-07 | 3.15e-05 ± 2.3e-05 | 0.0006673 ± 0.00029 | 0.007785 ± 0.0025 | 0.05774 ± 0.015 | 0.3019 ± 0.071 | 1.201 ± 0.27 | 3.849 ± 0.83 | 10.36 ± 2.2 | 24.22 ± 5 | 29.02 ± 6
CCCCCCCCCCCCCCCCCCCCCCC [tricosane] | 28 ± 1.96 | 7.059e-08 | 4.801e-06 ± 2.5e-06 | 0.0001361 ± 4.3e-05 | 0.002006 ± 0.0005 | 0.01797 ± 0.004 | 0.1096 ± 0.023 | 0.4952 ± 0.1 | 1.763 ± 0.36 | 5.183 ± 1.1 | 13.05 ± 2.6 | 15.88 ± 3.2
CCCCCCCCCCCCCCCCCCCCCCCC [tetracosane] | 29.1 ± 1.96 | 2.373e-08 | 1.931e-06 ± 1.1e-06 | 6.308e-05 ± 2.1e-05 | 0.001041 ± 0.00027 | 0.01022 ± 0.0023 | 0.06716 ± 0.014 | 0.3225 ± 0.067 | 1.208 ± 0.25 | 3.705 ± 0.75 | 9.668 ± 2 | 11.85 ± 2.4
CCCCCCCCCCCCCCCCCCCCCC [docosane] | 26.7 ± 1.89 | 2.148e-07 ± 4e-07 | 1.218e-05 ± 5.5e-06 | 0.0002988 ± 8.8e-05 | 0.003922 ± 0.00095 | 0.032 ± 0.007 | 0.1809 ± 0.038 | 0.7674 ± 0.16 | 2.593 ± 0.53 | 7.298 ± 1.5 | 17.71 ± 3.6 | 21.39 ± 4.3
